For the first experiment, the system named is phosphorylation of Serine 473 in Akt. The experiment can be described thus: In Vitro Phospho-Ser473 Akt Assay in MDA-MB-468 cells. The experiment is classed as cell-based. The note with it: Homo sapiens, MDA-MB-468, read-out: IC50 values against mTOR, phospho-Ser473 Akt assay, MDA-MB-468 cells.
`CC(C)NC(=O)c1cccc(-c2ccc3c(N4CCOC[C@@H]4C)nc(N4CCOC[C@@H]4C)nc3n2)c1` [Example 1al]: the IC50 was less than 100 nM.

Consider `Cc1ccc(-c2ccc3c(N4CCOC[C@@H]4C)nc(N4CCOC[C@@H]4C)nc3n2)cc1` [Example 1f], for which the IC50 was less than 100 nM.

On to `COc1ccc(-c2ccc3c(N4CCOC[C@@H]4C)nc(N4CCOC[C@@H]4C)nc3n2)cc1CNC1CCOCC1` [Example 4aq], for which the IC50 is less than 100 nM.

Regarding `CC(=O)NCc1ccc(-c2ccc3c(N4CCOC[C@@H]4C)nc(N4CCOC[C@@H]4C)nc3n2)cc1` [Example 5q], the IC50 was less than 100 nM.

`C[C@H]1COCCN1c1nc(N2CCOC[C@@H]2C)c2ccc(-c3cccc(CNC(=O)C4CC4)c3)nc2n1` [Example 5c]: the IC50 is less than 300 nM.

`CNCc1ccc(-c2ccc3c(N4CCOC[C@@H]4C)nc(N4CCOC[C@@H]4C)nc3n2)cc1` [Example 4a]: the IC50 was less than 100 nM.

With `CNCc1cc(-c2ccc3c(N4CCOC[C@@H]4C)nc(N4CCOC[C@@H]4C)nc3n2)ccc1F` [Example 4x], the IC50 is less than 100 nM.

As for `COc1ccc(-c2ccc3c(N4CCOC[C@@H]4C)nc(N4CCCC4C)nc3n2)cc1CO` (stereo partly drawn) [Example 18ap], the IC50 was less than 100 nM.

For the compound `COc1ccc(-c2ccc3c(N4CCOC[C@@H]4C)nc(Nc4ccccc4)nc3n2)cc1CO` [Example 18m], the IC50 was less than 100 nM.

Take `C[C@@H]1CN(c2nc(N3CCOC[C@@H]3C)c3ccc(-c4cccc(O)c4)nc3n2)C[C@H](C)O1` [Example 1bz]: the IC50 is less than 100 nM.

Regarding `CCC1CCC(C)N(c2nc(N3CCOC[C@@H]3C)c3ccc(-c4ccc(OC)c(CO)c4)nc3n2)C1` (stereo partly drawn) [Example 18bd], the IC50 is less than 100 nM.

Take `COc1ccc(-c2ccc3c(N4CCOC[C@@H]4C)nc(NC(C)C)nc3n2)cc1CO` [Example 18br]: the IC50 is less than 100 nM.

For the compound `C[C@H]1COCCN1c1nc(N2CCOC[C@@H]2C)c2ccc(-c3cccc(NS(C)(=O)=O)c3)nc2n1` [Example 1at], the half-maximal inhibitory concentration (IC50) was less than 100 nM.

Take `CNC(=O)c1ccc(-c2ccc3c(N4CCOC[C@@H]4C)nc(N4CCOC[C@@H]4C)nc3n2)cc1F` [Example 1cv]: the IC50 is less than 300 nM.

In the case of `CCCNC(=O)c1cc(-c2ccc3c(N4CCOC[C@@H]4C)nc(N4CCOC[C@@H]4C)nc3n2)ccc1F` [Example 1ac], the half-maximal inhibitory concentration (IC50) was less than 100 nM.

Consider `COCCNCc1cccc(-c2ccc3c(N4CCOC[C@@H]4C)nc(N4CCOC[C@@H]4C)nc3n2)c1` [Example 4o], for which the IC50 was less than 100 nM.

As to `C[C@H]1COCCN1c1nc(N2CCOC[C@@H]2C)c2ccc(-c3cnn(C)c3)nc2n1` [Example 1s], the IC50 was less than 100 nM.

Take `COc1ccc(-c2ccc3c(N4CCOC[C@@H]4C)nc(N4CCC(N)CC4)nc3n2)cc1CO` [Example 18ad]: the IC50 was less than 100 nM.

Regarding `C[C@H]1COCCN1c1nc(N2CCOC[C@@H]2C)c2ccc(-c3ccc(C#N)cc3)nc2n1` [Example 1bl], the IC50 was less than 100 nM.

In the case of `COc1ccc(-c2ccc3c(N4CCOC[C@@H]4C)nc(-n4cnc(C)c4C=O)nc3n2)cc1CO` [Example 18ba], the IC50 was less than 100 nM.

For the compound `COc1ccc(-c2ccc3c(N4CCOC[C@@H]4C)nc(-n4ccnc4)nc3n2)cc1CO` [Example 18ay], the IC50 was less than 300 nM.

With `COCCNC(=O)c1cccc(-c2ccc3c(N4CCOC[C@@H]4C)nc(N4CCOC[C@@H]4C)nc3n2)c1` [Example 1be], the IC50 is less than 100 nM.

As for `C[C@H]1COCCN1c1nc(N2CCOC[C@@H]2C)c2ccc(-c3ccc(Cl)cc3)nc2n1` [Example 1bp], the IC50 was less than 300 nM.

For `COc1ccc(-c2ccc3c(N4CCOC[C@@H]4C)nc(NCC(F)F)nc3n2)cc1CO` [Example 18bz], the IC50 is less than 300 nM.

With `COCC(C)Nc1nc(N2CCOC[C@@H]2C)c2ccc(-c3ccc(OC)c(CO)c3)nc2n1` (stereo partly drawn) [Example 18ax], the IC50 was less than 100 nM.

In the case of `C[C@H]1COCCN1c1nc(N2CCOC[C@@H]2C)c2ccc(-c3cccc(O)c3)nc2n1` [Example 1h], the IC50 was less than 100 nM.

For `COc1ccc(-c2ccc3c(N4CCOC[C@@H]4C)nc(N4CCSCC4)nc3n2)cc1CO` [Example 18ch], the IC50 is less than 100 nM.

For `C[C@H]1COCCN1c1nc(N2CCOC[C@@H]2C)c2ccc(-c3ccc(CN4CC[C@H](O)C4)cc3)nc2n1` [Example 4d], the 50% inhibitory concentration (IC50) is less than 100 nM.

As to `C[C@H]1COCCN1c1nc(N2CCOC[C@@H]2C)c2ccc(-c3ccc(CN)cc3)nc2n1` [Example 4b], the IC50 is less than 100 nM.

Take `CCOC(=O)C1CCCN(c2nc(N3CCOC[C@@H]3C)c3ccc(-c4ccc(OC)c(CO)c4)nc3n2)C1` (stereo partly drawn) [Example 18r]: the IC50 is less than 100 nM.

As to `C[C@H]1COCCN1c1nc(N2CCCCC2CO)nc2nc(-c3ccc(N)nc3)ccc12` (stereo partly drawn) [Example 2g], the IC50 is less than 300 nM.

On to `C[C@H]1COCCN1c1nc(N2CCOC[C@@H]2C)c2ccc(-c3cccc(CN)c3)nc2n1` [Example 4i], for which the IC50 was less than 100 nM.

Take `C[C@H]1COCCN1c1nc(N2CCOC[C@@H]2C)c2ccc(-c3cccc(CNC4CC4)c3)nc2n1` [Example 4j]: the IC50 was less than 100 nM.

For the compound `COc1ccc(-c2ccc3c(N4CCOC[C@@H]4C)nc(N4CCCC(C)C4)nc3n2)cc1CO` (stereo partly drawn) [Example 18i], the IC50 is less than 100 nM.

As to `COc1ccc(-c2ccc3c(N4CCOC[C@@H]4C)nc(N4CCCC(OC)C4)nc3n2)cc1CO` (stereo partly drawn) [Example 18aj], the IC50 was less than 300 nM.

`COc1ccc(-c2ccc3c(N4CCOC[C@@H]4C)nc(N4CCCC(C(F)(F)F)C4)nc3n2)cc1CO` (stereo partly drawn) [Example 18h]: the IC50 is less than 300 nM.

On to `C[C@H]1COCCN1c1nc(N2CCOC[C@@H]2C)c2ccc(-c3ccc(F)c(NS(C)(=O)=O)c3)nc2n1` [Example 1bk], for which the IC50 is less than 300 nM.

`CCNC(=O)c1cc(-c2ccc3c(N4CCOC[C@@H]4C)nc(N4CCOC[C@@H]4C)nc3n2)ccc1F` [Example 1af]: the IC50 is less than 100 nM.

`C[C@H]1COCCN1c1nc(N2CCOC[C@@H]2C)c2ccc(-c3ccc(S(C)(=O)=O)cc3)nc2n1` [Example 1am]: the IC50 was less than 300 nM.

On to `C[C@H]1COCCN1c1nc(N2CCOC[C@@H]2C)c2ccc(-c3ccc(CN4CC[C@@H](O)C4)cc3)nc2n1` [Example 4c], for which the concentration for half-maximal inhibition (IC50) was less than 100 nM.

Turning to `COc1ccc(-c2ccc3c(N4CCOC[C@@H]4C)nc(N4CCC(c5cccc(O)c5)CC4)nc3n2)cc1CO` [Example 18f], the 50% inhibitory concentration (IC50) is less than 100 nM.

With `C[C@H]1COCCN1c1nc(N2CCOC[C@@H]2C)c2ccc(-c3cccc(CO)c3)nc2n1` [Example 1i], the IC50 is less than 100 nM.

Consider `C[C@H]1COCCN1c1nc(N2CCOC[C@@H]2C)c2ccc(-c3ccc(F)c(CN4CC[C@H](O)C4)c3)nc2n1` [Example 4ak], for which the IC50 was less than 100 nM.

As for `COc1ccc(-c2ccc3c(N4CCOC[C@@H]4C)nc(N4CCC(CCO)CC4)nc3n2)cc1CO` [Example 18g], the IC50 was less than 100 nM.

Consider `COc1ccc(-c2ccc3c(N4CCOC[C@@H]4C)nc(N4CCC(c5ccncc5)CC4)nc3n2)cc1CO` [Example 18bi], for which the IC50 was less than 100 nM.

Turning to `C[C@H]1COCCN1c1nc(N2CCOC[C@@H]2C)c2ccc(-c3ccc(F)c(CO)c3)nc2n1` [Example 1bc], the IC50 was less than 100 nM.

Turning to `C[C@H]1COCCN1c1nc(N2CCOC[C@@H]2C)c2ccc(-c3ccc(F)c(CN4CCC[C@@H](O)C4)c3)nc2n1` [Example 4ah], the IC50 was less than 300 nM.

As for `COc1ccc(-c2ccc3c(N4CCOC[C@@H]4C)nc(N4CCCC[C@H]4C)nc3n2)cc1CO` [Example 18a], the IC50 was less than 100 nM.

As for `C[C@@H]1CN(c2nc(N3CCOC[C@@H]3C)c3ccc(-c4ccc(CO)cc4)nc3n2)C[C@H](C)O1` [Example 1by], the IC50 is less than 300 nM.

Still in this experiment, the particulars now being: Homo sapiens, MDA-MB-468, read-out: IC50 values against mTOR, phospho-Ser473 Akt assay, MDA-MB-468 cells, upper bound.
For `CCOc1nc(N2CCOC[C@@H]2C)c2ccc(-c3ccc(OC)c(CO)c3)nc2n1` [Example 18cv], the IC50 was less than 1000 nM.

As to `C[C@H]1COCCN1c1nc(N2CCC(C(N)=O)CC2)nc2nc(-c3ccc(Cl)cc3)ccc12` [Example 18dj], the IC50 was less than 1000 nM.

Take `C[C@H]1COCCN1c1nc(N2CCOC[C@@H]2C)c2ccc(-c3cccc(C(=O)N4CCN(C)CC4)c3)nc2n1` [Example 1bf]: the IC50 is less than 1000 nM.

Turning to `COc1ccc(-c2ccc3c(N4CCOC[C@@H]4C)nc(Nc4ccncn4)nc3n2)cc1CO` [Example 18n], the IC50 was less than 1000 nM.

As to `CNc1nc(N2CCOC[C@@H]2C)c2ccc(-c3ccc(OC)c(CO)c3)nc2n1` [Example 18bp], the IC50 is less than 1000 nM.

On to `C[C@@H]1CCCCN1c1nc(N2CCOC[C@@H]2C)c2ccc(-c3ccc(Cl)cc3)nc2n1` [Example 18dg], for which the IC50 was less than 1000 nM.

With `C[C@H]1COCCN1c1nc(N2CCOC[C@@H]2C)c2ccc(-c3ccc(F)c(CNC4CC4)c3)nc2n1` [Example 4v], the IC50 is less than 1000 nM.

In the case of `COc1ccc(-c2ccc3c(N4CCOC[C@@H]4C)nc(N4CCC(N5CCCCC5)CC4)nc3n2)cc1CO` [Example 18z], the IC50 is less than 1000 nM.

As to `C[C@H]1CCCCN1c1nc(N2CCOC[C@@H]2C)c2ccc(-c3ccc(Cl)cc3)nc2n1` [Example 18de], the IC50 was less than 1000 nM.

With `COc1ccc(-c2ccc3c(N4CCOC[C@@H]4C)nc(NCCO)nc3n2)cc1CO` [Example 18bs], the IC50 was less than 1000 nM.

With `C[C@H]1COCCN1c1nc(N2CCOC[C@@H]2C)c2ccc(-c3ccc(F)nc3)nc2n1` [Example 1ah], the IC50 was less than 1000 nM.

In the case of `C[C@H]1COCCN1c1nc(N2CCC(CO)CC2)nc2nc(-c3cccc(C(N)=O)c3)ccc12` [Example 2h], the half-maximal inhibitory concentration (IC50) was less than 1000 nM.

With `CCN(C)C(=O)c1cc(-c2ccc3c(N4CCOC[C@@H]4C)nc(N4CCOC[C@@H]4C)nc3n2)ccc1OC` [Example 3u], the IC50 was less than 1000 nM.

In the case of `CC(C)C(=O)NCc1cc(-c2ccc3c(N4CCOC[C@@H]4C)nc(N4CCOC[C@@H]4C)nc3n2)ccc1F` [Example 5w], the IC50 was less than 1000 nM.

On to `Cc1nn(C)c(C)c1-c1nc(N2CCOC[C@@H]2C)c2ccc(-c3cccc(CO)c3)nc2n1` [Example 19w], for which the IC50 was less than 1000 nM.

`COCC(=O)NCc1cc(-c2ccc3c(N4CCOC[C@@H]4C)nc(N4CCOC[C@@H]4C)nc3n2)ccc1F` [Example 5u]: the IC50 was less than 1000 nM.

On to `CC(=O)N(C)Cc1ccc(-c2ccc3c(N4CCOC[C@@H]4C)nc(N4CCOC[C@@H]4C)nc3n2)cc1` [Example 5r], for which the IC50 was less than 1000 nM.

These data come from US9102670B2, “Pyrido-, pyrazo- and pyrimido-pyrimidine derivatives as mTOR inhibitors” (KuDOS Pharmaceuticals Limited, priority 2006, dated 2015).
